From PubChem BioAssay (NCI)
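Results reflect a 48-hour exposure of cells in 96-well plates to compound at five concentrations. GI50 marks 50% less growth. TGI is the concentration that stops growth completely.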

Tests used:
Experiment in all cases: NCI anticancer screen, dose series, 48 h
786-0 renal = tested on: 786-0 renal
A498 renal = tested on: A498 renal
A549 NSCLC = tested on: A549 NSCLC
ACHN renal = tested on: ACHN renal
CAKI-1 renal = tested on: CAKI-1 renal
CCRF-CEM leukemia = tested on: CCRF-CEM leukemia
COLO 205 colon = tested on: COLO 205 colon
DU-145 prostate = tested on: DU-145 prostate
EKVX NSCLC = tested on: EKVX NSCLC
HCC-2998 colon = tested on: HCC-2998 colon
HCT-116 colon = tested on: HCT-116 colon
HCT-15 colon = tested on: HCT-15 colon
HL-60(TB) leukemia = tested on: HL-60(TB) leukemia
HOP-62 NSCLC = tested on: HOP-62 NSCLC
HOP-92 NSCLC = tested on: HOP-92 NSCLC
HS 578T breast = tested on: HS 578T breast
HT29 colon = tested on: HT29 colon
IGROV1 ovarian = tested on: IGROV1 ovarian
K-562 leukemia = tested on: K-562 leukemia
KM12 colon = tested on: KM12 colon
LOX IMVI melanoma = tested on: LOX IMVI melanoma
M14 melanoma = tested on: M14 melanoma
MALME-3M melanoma = tested on: MALME-3M melanoma
MCF7 breast = tested on: MCF7 breast
MDA-MB-231 breast = tested on: MDA-MB-231 breast
MDA-MB-435 = tested on: MDA-MB-435
MOLT-4 leukemia = tested on: MOLT-4 leukemia
NCI-H226 lung = tested on: NCI-H226 lung
NCI-H23 lung = tested on: NCI-H23 lung
NCI-H460 lung = tested on: NCI-H460 lung
NCI-H522 lung = tested on: NCI-H522 lung
NCI/ADR-RES ovarian = tested on: NCI/ADR-RES ovarian
OVCAR-3 ovarian = tested on: OVCAR-3 ovarian
OVCAR-4 ovarian = tested on: OVCAR-4 ovarian
OVCAR-5 ovarian = tested on: OVCAR-5 ovarian
OVCAR-8 ovarian = tested on: OVCAR-8 ovarian
PC-3 prostate = tested on: PC-3 prostate
RPMI-8226 leukemia = tested on: RPMI-8226 leukemia
RXF 393 renal = tested on: RXF 393 renal
SF-268 CNS = tested on: SF-268 CNS
SF-295 CNS = tested on: SF-295 CNS
SF-539 CNS = tested on: SF-539 CNS
SK-MEL-28 melanoma = tested on: SK-MEL-28 melanoma
SK-MEL-5 melanoma = tested on: SK-MEL-5 melanoma
SK-OV-3 ovarian = tested on: SK-OV-3 ovarian
SN12C renal = tested on: SN12C renal
SNB-19 CNS = tested on: SNB-19 CNS
SNB-75 CNS = tested on: SNB-75 CNS
SR leukemia = tested on: SR leukemia
SW-620 colon = tested on: SW-620 colon
T-47D breast = tested on: T-47D breast
TK-10 renal = tested on: TK-10 renal
U251 CNS = tested on: U251 CNS
UACC-257 melanoma = tested on: UACC-257 melanoma
UACC-62 melanoma = tested on: UACC-62 melanoma
UO-31 renal = tested on: UO-31 renal
SK-MEL-2 melanoma = tested on: SK-MEL-2 melanoma

Structure (SMILES): Nc1cc(N)c(N)cc1N
- GI50 (786-0 renal): 2.27 µM
- TGI (786-0 renal): 4.99 µM
- GI50 (A498 renal): 1.6 µM
- TGI (A498 renal): 4.67 µM
- GI50 (A549 NSCLC): 2.06 µM
- TGI (A549 NSCLC): 4.51 µM
- GI50 (ACHN renal): 1.73 µM
- TGI (ACHN renal): 3.72 µM
- GI50 (CAKI-1 renal): 2.55 µM
- TGI (CAKI-1 renal): 7.17 µM
- GI50 (CCRF-CEM leukemia): 3.43 µM
- TGI (CCRF-CEM leukemia): 27.5 µM
- GI50 (COLO 205 colon): 1.81 µM
- TGI (COLO 205 colon): 3.43 µM
- GI50 (DU-145 prostate): 1.75 µM
- TGI (DU-145 prostate): 3.18 µM
- GI50 (EKVX NSCLC): 2.7 µM
- TGI (EKVX NSCLC): 8.02 µM
- GI50 (HCC-2998 colon): 13.4 µM
- TGI (HCC-2998 colon): 27.9 µM
- GI50 (HCT-116 colon): 2.01 µM
- TGI (HCT-116 colon): 4.61 µM
- GI50 (HCT-15 colon): 2.01 µM
- TGI (HCT-15 colon): 4.68 µM
- GI50 (HL-60(TB) leukemia): 2.17 µM
- TGI (HL-60(TB) leukemia): 6.02 µM
- GI50 (HOP-62 NSCLC): 1.76 µM
- TGI (HOP-62 NSCLC): 3.35 µM
- GI50 (HOP-92 NSCLC): 12 µM
- TGI (HOP-92 NSCLC): 27.2 µM
- GI50 (HS 578T breast): 2.01 µM
- TGI (HS 578T breast): 5.37 µM
- GI50 (HT29 colon): 2.42 µM
- TGI (HT29 colon): 4.86 µM
- GI50 (IGROV1 ovarian): 2.17 µM
- TGI (IGROV1 ovarian): 4.83 µM
- GI50 (K-562 leukemia): 2.92 µM
- TGI (K-562 leukemia): > 100 µM
- GI50 (KM12 colon): 2.88 µM
- TGI (KM12 colon): 10.7 µM
- GI50 (LOX IMVI melanoma): 1.82 µM
- TGI (LOX IMVI melanoma): 3.75 µM
- GI50 (M14 melanoma): 1.87 µM
- TGI (M14 melanoma): 3.37 µM
- GI50 (MALME-3M melanoma): 1.79 µM
- TGI (MALME-3M melanoma): 3.45 µM
- GI50 (MCF7 breast): 1.79 µM
- TGI (MCF7 breast): 3.81 µM
- GI50 (MDA-MB-231 breast): 5.02 µM
- TGI (MDA-MB-231 breast): 29.4 µM
- GI50 (MDA-MB-435): 0.296 µM
- TGI (MDA-MB-435): 0.851 µM
- GI50 (MOLT-4 leukemia): 3.14 µM
- TGI (MOLT-4 leukemia): 28.6 µM
- GI50 (NCI-H226 lung): 1.93 µM
- TGI (NCI-H226 lung): 3.96 µM
- GI50 (NCI-H23 lung): 1.67 µM
- TGI (NCI-H23 lung): 4.1 µM
- GI50 (NCI-H460 lung): 10.8 µM
- TGI (NCI-H460 lung): 26.2 µM
- GI50 (NCI-H522 lung): 1.48 µM
- TGI (NCI-H522 lung): 2.9 µM
- GI50 (NCI/ADR-RES ovarian): 2.24 µM
- TGI (NCI/ADR-RES ovarian): 7.1 µM
- GI50 (OVCAR-3 ovarian): 1.97 µM
- TGI (OVCAR-3 ovarian): 4.46 µM
- GI50 (OVCAR-4 ovarian): 1.79 µM
- TGI (OVCAR-4 ovarian): 3.35 µM
- GI50 (OVCAR-5 ovarian): 2.18 µM
- TGI (OVCAR-5 ovarian): 4.99 µM
- GI50 (OVCAR-8 ovarian): 3.15 µM
- TGI (OVCAR-8 ovarian): 12.3 µM
- GI50 (PC-3 prostate): 3.1 µM
- TGI (PC-3 prostate): > 100 µM
- GI50 (RPMI-8226 leukemia): 3.48 µM
- TGI (RPMI-8226 leukemia): 17.5 µM
- GI50 (RXF 393 renal): 1.73 µM
- TGI (RXF 393 renal): 3.19 µM
- GI50 (SF-268 CNS): 3.06 µM
- TGI (SF-268 CNS): 12.2 µM
- GI50 (SF-295 CNS): 1.7 µM
- TGI (SF-295 CNS): 3.31 µM
- GI50 (SF-539 CNS): 2.17 µM
- TGI (SF-539 CNS): 5.88 µM
- GI50 (SK-MEL-28 melanoma): 2.03 µM
- TGI (SK-MEL-28 melanoma): 3.88 µM
- GI50 (SK-MEL-5 melanoma): 0.736 µM
- TGI (SK-MEL-5 melanoma): 2.02 µM
- GI50 (SK-OV-3 ovarian): 7.12 µM
- TGI (SK-OV-3 ovarian): 42.2 µM
- GI50 (SN12C renal): 1.6 µM
- TGI (SN12C renal): 3.08 µM
- GI50 (SNB-19 CNS): 3.42 µM
- TGI (SNB-19 CNS): 14.3 µM
- GI50 (SNB-75 CNS): 1.47 µM
- TGI (SNB-75 CNS): 2.87 µM
- GI50 (SR leukemia): 2.56 µM
- TGI (SR leukemia): 7.66 µM
- GI50 (SW-620 colon): 3.09 µM
- TGI (SW-620 colon): 12.1 µM
- GI50 (T-47D breast): 4.57 µM
- TGI (T-47D breast): 24.5 µM
- GI50 (TK-10 renal): 3.68 µM
- TGI (TK-10 renal): 14.5 µM
- GI50 (U251 CNS): 1.82 µM
- TGI (U251 CNS): 3.75 µM
- GI50 (UACC-257 melanoma): 1.55 µM
- TGI (UACC-257 melanoma): 3.05 µM
- GI50 (UACC-62 melanoma): 1.55 µM
- TGI (UACC-62 melanoma): 2.97 µM
- GI50 (UO-31 renal): 1.56 µM
- TGI (UO-31 renal): 4.6 µM

Structure (SMILES): Clc1ccc2c(N3CCC(CCC4CCN(c5ncnc6cc(Cl)ccc56)CC4)CC3)ncnc2c1
- GI50 (UACC-257 melanoma): 61 µM

Structure (SMILES): COc1cc(Cn2c3c(c4c(C(=O)NCCN(C)C)c(O)ccc42)C(=O)c2ccccc2C3=O)cc(OC)c1
- TGI (A498 renal): 3.45 µM
- TGI (CAKI-1 renal): 3.26 µM
- TGI (COLO 205 colon): 3.34 µM
- TGI (DU-145 prostate): 3.2 µM
- TGI (EKVX NSCLC): 3.32 µM
- TGI (HCC-2998 colon): 2.35 µM
- TGI (HS 578T breast): 4.55 µM
- TGI (HT29 colon): 3.45 µM
- TGI (IGROV1 ovarian): 3.22 µM
- TGI (K-562 leukemia): > 100 µM
- TGI (KM12 colon): 3.2 µM
- TGI (MALME-3M melanoma): 3.05 µM
- TGI (MDA-MB-435): 3.4 µM
- TGI (NCI-H226 lung): 48.3 µM
- TGI (NCI-H522 lung): 3.21 µM
- TGI (NCI/ADR-RES ovarian): 5.21 µM
- TGI (OVCAR-5 ovarian): 3.2 µM
- TGI (RXF 393 renal): 5.02 µM
- TGI (SF-295 CNS): 3.45 µM
- TGI (SF-539 CNS): 3.4 µM
- TGI (SK-MEL-2 melanoma): 3.36 µM
- TGI (SK-MEL-28 melanoma): 3.43 µM
- TGI (SK-MEL-5 melanoma): 3.27 µM
- TGI (SK-OV-3 ovarian): 3.88 µM
- TGI (TK-10 renal): 3.14 µM
- TGI (UACC-257 melanoma): 3.97 µM
- TGI (UO-31 renal): 3.23 µM
